Results reported in the NIST ThermoML archive (doi:10.1021/je800243y).
Numbers after ± are expanded uncertainties.

Assay: molar heat capacity at constant pressure
Details: 101.33 kPa, Crystal, Large sample (1 g) DSC

O=c1ccn([C@H]2C[C@H](O)[C@@H](CO)O2)c(=O)[nH]1 [2'-deoxyuridine]
molar heat capacity at constant pressure (298.15 K): 263.41 ± 5.3 J/K/mol | molar heat capacity at constant pressure (303.15 K): 266.16 ± 5.3 J/K/mol | molar heat capacity at constant pressure (308.15 K): 268.9 ± 5.4 J/K/mol | molar heat capacity at constant pressure (313.15 K): 271.65 ± 5.4 J/K/mol | molar heat capacity at constant pressure (318.15 K): 274.39 ± 5.5 J/K/mol | molar heat capacity at constant pressure (323.15 K): 277.14 ± 5.5 J/K/mol | molar heat capacity at constant pressure (328.15 K): 279.89 ± 5.6 J/K/mol | molar heat capacity at constant pressure (333.15 K): 282.63 ± 5.7 J/K/mol | molar heat capacity at constant pressure (338.15 K): 285.38 ± 5.7 J/K/mol | molar heat capacity at constant pressure (343.15 K): 288.12 ± 5.8 J/K/mol | molar heat capacity at constant pressure (348.15 K): 290.86 ± 5.8 J/K/mol | molar heat capacity at constant pressure (353.15 K): 293.6 ± 5.9 J/K/mol | molar heat capacity at constant pressure (358.15 K): 296.36 ± 5.9 J/K/mol | molar heat capacity at constant pressure (363.15 K): 299.1 ± 6 J/K/mol | molar heat capacity at constant pressure (368.15 K): 301.84 ± 6 J/K/mol

O=c1[nH]c(=O)n([C@@H]2O[C@H](CO)[C@@H](O)[C@H]2O)cc1I [2,4-dihdroxy-5-iodo-1-β-D-ribofurnosylpyrimidine]
molar heat capacity at constant pressure (298.15 K): 337.43 ± 6.8 J/K/mol | molar heat capacity at constant pressure (303.15 K): 338.14 ± 6.8 J/K/mol | molar heat capacity at constant pressure (308.15 K): 338.86 ± 6.8 J/K/mol | molar heat capacity at constant pressure (313.15 K): 339.57 ± 6.8 J/K/mol | molar heat capacity at constant pressure (318.15 K): 340.29 ± 6.8 J/K/mol | molar heat capacity at constant pressure (323.15 K): 341 ± 6.8 J/K/mol | molar heat capacity at constant pressure (328.15 K): 341.72 ± 6.8 J/K/mol | molar heat capacity at constant pressure (333.15 K): 342.43 ± 6.8 J/K/mol | molar heat capacity at constant pressure (338.15 K): 343.15 ± 6.9 J/K/mol | molar heat capacity at constant pressure (343.15 K): 343.86 ± 6.9 J/K/mol | molar heat capacity at constant pressure (348.15 K): 344.58 ± 6.9 J/K/mol | molar heat capacity at constant pressure (353.15 K): 345.29 ± 6.9 J/K/mol | molar heat capacity at constant pressure (358.15 K): 346.01 ± 6.9 J/K/mol | molar heat capacity at constant pressure (363.15 K): 346.72 ± 6.9 J/K/mol | molar heat capacity at constant pressure (368.15 K): 347.44 ± 7 J/K/mol

O=c1[nH]c(=O)n([C@H]2C[C@H](O)[C@@H](CO)O2)cc1I [5-iodo-2'-deoxyuridine]
molar heat capacity at constant pressure (298.15 K): 285.34 ± 5.7 J/K/mol | molar heat capacity at constant pressure (303.15 K): 287.61 ± 5.8 J/K/mol | molar heat capacity at constant pressure (308.15 K): 289.88 ± 5.8 J/K/mol | molar heat capacity at constant pressure (313.15 K): 292.15 ± 5.8 J/K/mol | molar heat capacity at constant pressure (318.15 K): 294.43 ± 5.9 J/K/mol | molar heat capacity at constant pressure (323.15 K): 296.69 ± 5.9 J/K/mol | molar heat capacity at constant pressure (328.15 K): 298.96 ± 6 J/K/mol | molar heat capacity at constant pressure (333.15 K): 301.22 ± 6 J/K/mol | molar heat capacity at constant pressure (338.15 K): 303.48 ± 6.1 J/K/mol | molar heat capacity at constant pressure (343.15 K): 305.76 ± 6.1 J/K/mol | molar heat capacity at constant pressure (348.15 K): 308.02 ± 6.2 J/K/mol | molar heat capacity at constant pressure (353.15 K): 310.3 ± 6.2 J/K/mol | molar heat capacity at constant pressure (358.15 K): 312.55 ± 6.2 J/K/mol | molar heat capacity at constant pressure (363.15 K): 314.82 ± 6.3 J/K/mol | molar heat capacity at constant pressure (368.15 K): 317.09 ± 6.3 J/K/mol

O=c1[nH]c(=O)n([C@H]2C[C@H](O)[C@@H](CO)O2)cc1Br [5-bromo-2'-deoxyuridine]
molar heat capacity at constant pressure (298.15 K): 260.65 ± 5.2 J/K/mol | molar heat capacity at constant pressure (303.15 K): 263.37 ± 5.3 J/K/mol | molar heat capacity at constant pressure (308.15 K): 266.08 ± 5.3 J/K/mol | molar heat capacity at constant pressure (313.15 K): 268.8 ± 5.4 J/K/mol | molar heat capacity at constant pressure (318.15 K): 271.51 ± 5.4 J/K/mol | molar heat capacity at constant pressure (323.15 K): 274.23 ± 5.5 J/K/mol | molar heat capacity at constant pressure (328.15 K): 276.94 ± 5.5 J/K/mol | molar heat capacity at constant pressure (333.15 K): 279.66 ± 5.6 J/K/mol | molar heat capacity at constant pressure (338.15 K): 282.38 ± 5.7 J/K/mol | molar heat capacity at constant pressure (343.15 K): 285.09 ± 5.7 J/K/mol | molar heat capacity at constant pressure (348.15 K): 287.81 ± 5.8 J/K/mol | molar heat capacity at constant pressure (353.15 K): 290.52 ± 5.8 J/K/mol | molar heat capacity at constant pressure (358.15 K): 293.24 ± 5.9 J/K/mol | molar heat capacity at constant pressure (363.15 K): 295.95 ± 5.9 J/K/mol | molar heat capacity at constant pressure (368.15 K): 298.66 ± 6 J/K/mol

O=c1[nH]c(=O)n([C@@H]2O[C@H](CO)[C@@H](O)[C@H]2O)cc1Br [5-bromouridine]
molar heat capacity at constant pressure (298.15 K): 305.69 ± 6.1 J/K/mol | molar heat capacity at constant pressure (303.15 K): 306.16 ± 6.1 J/K/mol | molar heat capacity at constant pressure (308.15 K): 306.64 ± 6.1 J/K/mol | molar heat capacity at constant pressure (313.15 K): 307.11 ± 6.1 J/K/mol | molar heat capacity at constant pressure (318.15 K): 307.58 ± 6.2 J/K/mol | molar heat capacity at constant pressure (323.15 K): 308.05 ± 6.2 J/K/mol | molar heat capacity at constant pressure (328.15 K): 308.52 ± 6.2 J/K/mol | molar heat capacity at constant pressure (333.15 K): 308.99 ± 6.2 J/K/mol | molar heat capacity at constant pressure (338.15 K): 309.47 ± 6.2 J/K/mol | molar heat capacity at constant pressure (343.15 K): 309.94 ± 6.2 J/K/mol | molar heat capacity at constant pressure (348.15 K): 310.41 ± 6.2 J/K/mol | molar heat capacity at constant pressure (353.15 K): 310.88 ± 6.2 J/K/mol | molar heat capacity at constant pressure (358.15 K): 311.35 ± 6.2 J/K/mol | molar heat capacity at constant pressure (363.15 K): 311.82 ± 6.2 J/K/mol | molar heat capacity at constant pressure (368.15 K): 312.29 ± 6.2 J/K/mol

Cc1cn([C@H]2C[C@H](O)[C@@H](CO)O2)c(=O)[nH]c1=O [thymidine]
molar heat capacity at constant pressure (298.15 K): 276.7 ± 5.5 J/K/mol | molar heat capacity at constant pressure (303.15 K): 278.84 ± 5.6 J/K/mol | molar heat capacity at constant pressure (308.15 K): 280.97 ± 5.6 J/K/mol | molar heat capacity at constant pressure (313.15 K): 283.12 ± 5.7 J/K/mol | molar heat capacity at constant pressure (318.15 K): 285.25 ± 5.7 J/K/mol | molar heat capacity at constant pressure (323.15 K): 287.4 ± 5.8 J/K/mol | molar heat capacity at constant pressure (328.15 K): 289.53 ± 5.8 J/K/mol | molar heat capacity at constant pressure (333.15 K): 291.68 ± 5.8 J/K/mol | molar heat capacity at constant pressure (338.15 K): 293.81 ± 5.9 J/K/mol | molar heat capacity at constant pressure (343.15 K): 295.95 ± 5.9 J/K/mol | molar heat capacity at constant pressure (348.15 K): 298.09 ± 6 J/K/mol | molar heat capacity at constant pressure (353.15 K): 300.23 ± 6 J/K/mol | molar heat capacity at constant pressure (358.15 K): 302.37 ± 6 J/K/mol | molar heat capacity at constant pressure (363.15 K): 304.51 ± 6.1 J/K/mol | molar heat capacity at constant pressure (368.15 K): 306.65 ± 6.1 J/K/mol
